From ChEMBL document CHEMBL5143542, “Synthesis and biological studies of "Polycerasoidol" and "trans-δ-Tocotrienolic acid" derivatives as PPARα and/or PPARγ agonists” (Bioorg Med Chem, 2022)
Activity calls are given as the source filed them. The calls are words filed in the database; no cut-off is given here.

Assays:
Format in all cases: cell-based
PPARgamma = target: T1, PPARgamma (Homo sapiens, UniProt P37231); assay: (§1) Agonist activity at Gal4-fused human PPARgamma expressed in COS7 cells assessed as receptor transactivation at 10 uM measured after 24 hrs by luciferase/beta-galactosidase reporter gene assay relative to rosiglitazone; conditions: COS7 cells expressing Gal4-fused human PPARgamma, read-out: max activation
T1 sequence (P37231 whole entry): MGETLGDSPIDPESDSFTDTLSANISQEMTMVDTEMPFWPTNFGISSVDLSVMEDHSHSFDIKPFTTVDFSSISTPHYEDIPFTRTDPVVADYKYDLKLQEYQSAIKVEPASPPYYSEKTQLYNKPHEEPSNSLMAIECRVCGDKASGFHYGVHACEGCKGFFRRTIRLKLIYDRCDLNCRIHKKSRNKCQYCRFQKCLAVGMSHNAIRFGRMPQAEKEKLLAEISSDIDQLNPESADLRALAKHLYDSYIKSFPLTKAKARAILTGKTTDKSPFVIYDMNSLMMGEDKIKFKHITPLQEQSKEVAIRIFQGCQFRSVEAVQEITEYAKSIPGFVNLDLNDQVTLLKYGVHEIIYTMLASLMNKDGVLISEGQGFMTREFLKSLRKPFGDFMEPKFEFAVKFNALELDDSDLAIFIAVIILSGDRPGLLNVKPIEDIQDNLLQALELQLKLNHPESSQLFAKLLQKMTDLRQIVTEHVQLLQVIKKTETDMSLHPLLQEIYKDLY

[1] = target: T2, Peroxisome proliferator-activated receptor alpha (Homo sapiens) (UniProt Q07869); assay: Agonist activity at Gal4-fused human PPARalpha expressed in COS7 cells assessed as receptor transactivation at 10 uM measured after 24 hrs by luciferase/beta-galactosidase reporter gene assay relative to WY-14643; conditions: filed as agonist
T2 sequence (whole entry): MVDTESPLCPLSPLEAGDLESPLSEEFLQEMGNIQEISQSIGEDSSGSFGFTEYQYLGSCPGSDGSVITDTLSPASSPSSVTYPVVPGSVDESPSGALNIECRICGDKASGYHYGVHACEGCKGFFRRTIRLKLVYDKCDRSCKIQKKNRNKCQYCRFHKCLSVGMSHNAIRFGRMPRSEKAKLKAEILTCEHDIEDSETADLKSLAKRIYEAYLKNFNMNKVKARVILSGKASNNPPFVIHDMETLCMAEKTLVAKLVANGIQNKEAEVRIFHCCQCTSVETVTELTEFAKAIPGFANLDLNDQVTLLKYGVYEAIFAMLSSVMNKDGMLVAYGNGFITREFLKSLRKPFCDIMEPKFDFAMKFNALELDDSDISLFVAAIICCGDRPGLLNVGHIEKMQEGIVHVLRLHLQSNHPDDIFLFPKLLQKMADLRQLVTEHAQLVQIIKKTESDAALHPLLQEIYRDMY

[2] = target: T3, Peroxisome proliferator-activated receptor gamma (Homo sapiens, UniProt P37231); assay: as §1; conditions: cos7, 24 h, 10 µM
T3 sequence (P37231 whole entry): T1 sequence (P37231 whole entry)

[3] = target: T4, Peroxisome proliferator-activated receptor gamma (Homo sapiens) (UniProt P37231); assay: Partial agonist activity at Gal4-fused human PPARgamma expressed in COS7 cells assessed as receptor transactivation at 10 uM measured after 24 hrs by luciferase/beta-galactosidase reporter gene assay; conditions: filed as partial agonist
T4 sequence (whole entry): T1 sequence (P37231 whole entry)

Row | SMILES | max activation [1] [%] | Activity [1] | Activity [3] | Emax at 24 h, 10 µM (PPARgamma) [%] | Activity [2]
1 | C/C(=C\CCC1(C)CCc2cc(OCc3ccccc3)ccc2O1)CCC(=O)Nc1ccccc1 (stereo unspecified) |  | Active |  |  | Active
2 | CCOC(=O)CC/C(C)=C/CCC1(C)CCc2cc(OCc3ccccc3)ccc2O1 (stereo unspecified) | 123 |  |  | 38 | 
3 | CCCOc1ccc2c(c1)CCC(C)(CC/C=C(\C)CC/C=C(\C)C(=O)OCC)O2 (stereo unspecified) |  |  |  |  | Active
4 | CCCOc1ccc2c(c1)CCC(C)(CC/C=C(\C)CCC(=O)Nc1ccccc1)O2 (stereo unspecified) |  | Active |  |  | Active

Now from value to compound, other results behind:

Row | max activation [1] [%] | Activity [1] | Activity [3] | SMILES | Emax at 24 h, 10 µM (PPARgamma) [%] | Activity [2]
5 | 107 |  |  | C/C(=C\CC[C@]1(C)CCc2cc(O)cc(C)c2O1)CC/C=C(\C)C(=O)O | 95 | 
6 |  | Active |  | CCCOc1ccc2c(c1)CCC(C)(CC/C=C(\C)CCC(=O)OCC)O2 (stereo unspecified) |  | Active
7 |  |  | Active | C/C(=C\CCC1(C)CCc2cc(OCc3ccccc3)ccc2O1)CC/C=C(\C)C(=O)Nc1ccccc1 (stereo unspecified) |  | 
8 |  | Active |  | CCCOc1ccc2c(c1)CCC(C)(CC/C=C(\C)CC/C=C(\C)CC/C=C(\C)C(=O)Nc1ccccc1)O2 (stereo unspecified) |  | Active
9 |  | Active |  | CCCOc1ccc2c(c1)CCC(C)(CC/C=C(\C)CC/C=C(\C)CC/C=C(\C)C(=O)OCC)O2 (stereo unspecified) |  | Active
